In patent publication US20230045737A1, “SUBSTITUTED ISOINDOLINONES AS MODULATORS OF CEREBLON-MEDIATED NEO-SUBSTRATE RECRUITMENT” (Vividion Therapeutics, Inc., priority 2018, published 2023):

Each compound was assayed against CRBN-DDB1 (Homo sapiens, UniProt Q96SW2) (assay: CRBN Fluorescence Polarization Assay with BODIPY-IMid Tracer). Conditions: competition with 30 nM BODIPY-IMiD tracer for 500 nM CRBN-DDB1, 3-fold serial dilution.
Format: binding
Parameters: unit not given here
Protocol: Promega assay was used to compare bifunctional ligands of the present invention to compete with IMiDs tracer binding to CRBN.
25 uM BODIPY-IMiD tracer (aliquots from Promega 160 uM stock solution)
Buffer: 100 mM Tris pH7.5, 150 mM NaCl, no DTT
Plates: PCR plate 96-well, Black 384-well
384-well plate 20 uL total volume
10 uL of CRBN-DDB1, BODIPY-IMiD added to 10 uL of ligand
A full 384-well assay plate was used to test bifunctional compounds with and without protein, Pomalidomide used as a control. Two 96-well PCR plates were prepared as follows: • 1. Plate 1 • a. To wells A1-A11 on a 96-well PCR plate 100 uM bifunctional compound was added to 40 uL total volume • i. 38 uL of buffer was added • ii. 2 uL was added of 2 mM bifunctional or IMiD compound in DMSO or 2 uL of 0.2 mM for CC220 analogs • b. To well A12 Pomalidomide was added as control • i. 38 uL buffer was added • ii. 2 uL of 2 mM Pomalidomide in DMSO was added • 2. Plate 2 • a. To wells A1-A10 on a 96-well PCR plate 100 uM bifunctional compound was added to 40 uL total volume • i. 38 uL of buffer was added • ii. 2 uL of 2 mM bifunctional compound in DMSO was added • b. To well A11 CC220 control was added • i. 38 uL buffer added • ii. 2 uL of 0.2 mM for CC220 was added • c. To well A12 DMSO control was added • i. Added buffer to 38 uL • ii. Added 2 uL of DMSO • 3. Prepared 7 mL of Buffer with 5% DMSO for serial dilution • a. 26.67 uL to rows B-H on 96-well plate • 4. Serial dilutions of samples in row A1 3-fold • a. 13.3 uL of A1 added to 26.67 uL in A2 • 5. Added 10 uL to 384-well plate • a. Added A1 from Plate 1 to wells A1 and A2 on 384-well plate (top half of 384-well plate) • b. Added A1 from Plate 2 to wells I1 and I2 on 384-well plate ([…] of 384-well plate)
A preparation was made of 500 nM CRBN-DDB1, 30 nM IMiD complex. To 4 mL of the prepared 500 nM CRBN-DDB1, 30 nM BODIPY-IMiD was added 47.6 uL of 46 uM CRBN-DDB1, 3.752 mL of Buffer (4 additions of 938 uL), 200 uL of DMSO, and 4.8 uL of 25 uM BODIPY IMiD stock. This incubated at room temperature for 10 minutes and then 10 uL was added to all wells on 384-well plate except wells M23-24, N23-24, O23-24, P23-24. Gain Control samples were then made consisting of 950 uL of Buffer, 50 uL of DMSO, 1.2 uL of 25 uM BODIPY IMiD stock, and 10 uL was added to wells M23-24, N23-24, O23-24, P23-24.

CRBN-DDB1, sequence (Q96SW2 whole entry): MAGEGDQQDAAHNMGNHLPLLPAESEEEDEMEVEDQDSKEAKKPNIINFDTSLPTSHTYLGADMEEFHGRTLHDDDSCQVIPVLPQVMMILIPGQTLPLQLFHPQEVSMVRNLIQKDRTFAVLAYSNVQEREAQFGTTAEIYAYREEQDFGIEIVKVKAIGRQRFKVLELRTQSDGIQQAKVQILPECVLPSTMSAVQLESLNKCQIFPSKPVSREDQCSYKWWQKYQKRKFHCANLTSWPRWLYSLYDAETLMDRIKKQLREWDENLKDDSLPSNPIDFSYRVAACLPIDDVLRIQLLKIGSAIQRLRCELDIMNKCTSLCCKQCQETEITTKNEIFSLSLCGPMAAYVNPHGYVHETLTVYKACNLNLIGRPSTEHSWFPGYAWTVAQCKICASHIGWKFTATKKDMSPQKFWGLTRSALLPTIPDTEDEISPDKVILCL
CRBN-DDB1, sequence (Q16531 whole entry partner): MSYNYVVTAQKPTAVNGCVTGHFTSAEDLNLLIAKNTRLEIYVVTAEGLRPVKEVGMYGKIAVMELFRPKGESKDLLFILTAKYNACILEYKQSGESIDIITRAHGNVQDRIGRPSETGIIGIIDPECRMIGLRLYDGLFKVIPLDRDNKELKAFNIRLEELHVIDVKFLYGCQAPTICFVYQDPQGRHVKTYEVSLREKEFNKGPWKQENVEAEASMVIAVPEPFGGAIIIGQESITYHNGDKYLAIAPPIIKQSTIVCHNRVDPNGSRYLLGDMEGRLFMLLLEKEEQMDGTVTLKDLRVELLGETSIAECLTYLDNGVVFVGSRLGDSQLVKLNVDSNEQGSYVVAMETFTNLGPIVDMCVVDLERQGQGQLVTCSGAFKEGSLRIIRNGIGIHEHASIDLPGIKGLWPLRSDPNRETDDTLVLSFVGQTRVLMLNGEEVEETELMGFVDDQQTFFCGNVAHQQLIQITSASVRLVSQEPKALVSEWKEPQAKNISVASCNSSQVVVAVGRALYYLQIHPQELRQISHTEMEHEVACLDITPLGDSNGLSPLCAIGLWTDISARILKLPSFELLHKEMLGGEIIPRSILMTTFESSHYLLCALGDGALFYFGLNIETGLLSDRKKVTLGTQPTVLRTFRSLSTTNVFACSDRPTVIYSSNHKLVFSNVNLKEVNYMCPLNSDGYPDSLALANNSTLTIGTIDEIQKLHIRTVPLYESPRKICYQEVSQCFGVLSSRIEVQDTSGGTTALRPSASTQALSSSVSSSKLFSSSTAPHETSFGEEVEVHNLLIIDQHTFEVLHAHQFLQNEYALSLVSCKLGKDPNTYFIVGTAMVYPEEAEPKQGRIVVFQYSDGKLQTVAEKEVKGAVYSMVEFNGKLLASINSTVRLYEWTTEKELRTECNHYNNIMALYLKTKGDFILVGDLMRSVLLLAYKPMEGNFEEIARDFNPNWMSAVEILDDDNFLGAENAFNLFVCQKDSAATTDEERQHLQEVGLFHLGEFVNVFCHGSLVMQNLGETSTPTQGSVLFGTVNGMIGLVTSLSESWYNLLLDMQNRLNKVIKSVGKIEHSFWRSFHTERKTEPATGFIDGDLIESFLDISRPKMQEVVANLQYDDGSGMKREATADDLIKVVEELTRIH

Row | SMILES | Result
1 | O=C1CCC(N2Cc3c(OCc4cc(CN5CCOCC5)ccn4)cccc3C2=O)C(=O)N1 (stereo not drawn) [3-(4-((4-(morpholinomethyl)pyridin-2-yl)methoxy)-1-oxoisoindolin-2-yl)piperidine-2,6-dione] | 0.94
2 | O=C1CC[C@H](N2Cc3c(OCc4ccc(Br)cc4)cccc3C2=O)C(=O)N1 [(S)-3-(4-((4-bromobenzyl)oxy)-1-oxoisoindolin-2-yl)piperidine-2,6-dione] | 0.25
3 | O=C1CCC(N2Cc3c(OCc4ccc(Cn5ccnc5)cc4)cccc3C2=O)C(=O)N1 (stereo not drawn) [3-(4-((4-((1H-imidazol-1-yl)methyl)benzyl)oxy)-1-oxoisoindolin-2-yl)piperidine-2,6-dione] | 0.16
4 | COc1ccc2c(c1)C(=O)N(C1CCC(=O)NC1=O)C2 (stereo not drawn) [3-(6-methoxy-1-oxoisoindolin-2-yl)piperidine-2,6-dione] | 1.43
5 | O=C1CC[C@@H](N2Cc3c(OCc4ccc(CN5CCOCC5)cc4)cccc3C2=O)C(=O)N1 | 0.16
6 | O=C1CCC(N2Cc3c(OCCO)cccc3C2=O)C(=O)N1 (stereo not drawn) [3-(4-(2-hydroxyethoxy)-1-oxoisoindolin-2-yl)piperidine-2,6-dione] | 0.93

Other lines, results leading:

Row | Result | SMILES
7 | 0.1 | O=C1CC[C@H](N2Cc3c(OCc4ccccc4)ccc(Br)c3C2=O)C(=O)N1 [(S)-3-(4-(benzyloxy)-7-bromo-1-oxoisoindolin-2-yl)piperidine-2,6-dione]
8 | 0.54 | O=C1CC[C@H](N2Cc3cc(OCc4ccccc4)ccc3C2=O)C(=O)N1 [(S)-3-(5-(benzyloxy)-1-oxoisoindolin-2-yl)piperidine-2,6-dione]
9 | 1.57 | Nc1cccc2c1C(=O)N(C1CCC(=O)NC1=O)C2=O (stereo not drawn) [Pomalidomide, pomalidomide, reference compound]
10 | 0.05 | COC(=O)C1CCN(Cc2ccc(COc3cccc4c3CN(C3CCC(=O)NC3=O)C4=O)cc2)CC1 (stereo not drawn) [methyl 1-(4-(((2-(2,6-dioxopiperidin-3-yl)-1-oxoisoindolin-4-yl)oxy)methyl)benzyl)piperidine-4-carboxylate]
11 | 0.14 | COC(=O)C1CCN(Cc2ccc(COc3cccc4c3CN(C3CCC(=O)NC3=O)C4=O)cc2)C1 (stereo not drawn) [methyl 1-(4-(((2-(2,6-dioxopiperidin-3-yl)-1-oxoisoindolin-4-yl)oxy)methyl)benzyl)pyrrolidine-3-carboxylate]
12 | 0.06 | COC(=O)C1CCCN(Cc2ccc(COc3cccc4c3CN(C3CCC(=O)NC3=O)C4=O)cc2)C1 (stereo not drawn) [methyl 1-(4-(((2-(2,6-dioxopiperidin-3-yl)-1-oxoisoindolin-4-yl)oxy)methyl)benzyl)piperidine-3-carboxylate]
